The values below come from publication PMC6270836, “Carapanolides J–L from the Seeds of Carapa guianensis (Andiroba) and Their Effects on LPS-Activated NO Production” (Molecules, 2014).

Where “and” joins values, the source holds several entries; their conditions need not be identical. Identical values can stand only once. Entries after “also recorded” stand apart in the source; their conditions may differ. Like-named read-outs stand apart in the source and are kept apart here.

The term IC50 denotes the concentration that gives 50% inhibition. For orientation: viability means a read-out of living cells in per cent, often relative to untreated cells.

In series [1] the test system is NO production in LPS-stimulated RAW264.7 cells. Put plainly: Inhibitory assay of NO production in LPS-stimulated RAW264.7 cells. It counts as cell-based, mouse. Particulars: for Produced NO (%): LPS 5 μg/mL, DMSO control = 100%, mean ± S.E., n=3; for IC50: Mus musculus, read-out: IC50 (μM), produced NO. On the procedure:
(§1) Physiological nitric oxide (NO) is involved in blood pressure regulation and blood flow distribution, whereas its overexpression may induce tissue injury, multiple organ dysfunction, and death, as well as systemic inflammatory responses in sepsis, such as hypotension, cardiodepression, and vascular hyporeactivity. In the present study, four limonoids and L-NMMA, an inducible nitric oxide synthase (iNOS) inhibitor, were evaluated for their inhibitory effects on NO production in LPS-stimulated RAW264.7 cells (Table 3). To determine safe concentrations, the cytotoxicities of these limonoids against RAW 264.7 were assessed by the MTT assay.
An inhibitory assay of nitric oxide production was performed according to a method reported previously with slight modifications. Briefly, RAW264.7 cells (5 × 10^4 cells in 100 μL) were seeded onto 96-well microplates, and incubated for 24h. D-MEM (100 μL) containing test samples (final concentration of 100, 30, 10, or 3 μM) dissolved in DMSO (final concentration 0.2%) and LPS (final concentration of 5 μg/mL) were added. […] After being incubated for 30 min, the absorbance of each well was read at 570 nm using a microplate reader. The optical density of vehicle control cells was assumed to be 100%.

Series [2] is described as follows: RAW264.7 cell proliferation / cytotoxicity by MTT assay. The following applies: mouse. On the procedure:
as §1
(§2) RAW264.7 cell proliferation was examined according to a method reported previously with some modifications. Briefly, RAW264.7 cells (5 × 10^4 cells in 100 μL) were seeded onto 96-well microplates, and incubated for 24 h. D-MEM (100 μL) containing test samples (final concentration of 100, 30, 10, or 3 μM) dissolved in DMSO (final concentration 0.2%) was added. […] After 3 h of incubation, 20% sodium dodecyl sulfate (SDS) in 0.1 M HCl was added to dissolve the formazan produced by the cells. The absorbance of each well was read at 570 nm using a microplate reader. The optical density of vehicle control cells was assumed to be 100%.
(Tetrazolium assays rely on reduction of a dye to a coloured formazan, in cell work by metabolically active cells.)

A further series concerns RAW264.7 cells. The description is as above. The following applies: 3–100 μM, MTT assay. The method, then:
as §1, §2

Setting [3] is: LPS-stimulated RAW264.7 cells, 24 h.

Turning to `CC(=O)O[C@@H]1C[C@H]2C(C)(C)C(=O)C=C[C@]2(C)[C@H]2CC[C@@]3(C)[C@H](c4ccoc4)C(=O)[C@H]4O[C@]43[C@@]21C` [Compound 4, epoxyazadiradione], in series [1] (3 μM, 24 h), the “Produced NO (%)” value was 74.0% and 74.0 ± 5.0%. The “Produced NO (%)” value in series [1] (10 μM, 24 h) is 30.0% and 30.0 ± 2.3%. Moreover, the “Produced NO (%)” value in series [1] (30 μM, 24 h) is given as 7.5 ± 1.0%. In addition, the “Produced NO (%)” value in series [1] (100 μM, 24 h) is listed as 3.9 ± 1.8%. In series [1] (setting [3]), the IC50 turned out to be 5.9 µM. Besides, in series [2], inhibition was half-maximal at 21.3 µM (IC50 at 24 h); the viability at 24 h, 3 µM was determined as 93.6 ± 1.4%; the viability at 24 h, 10 µM is 99.7 ± 0.8%; the viability at 24 h, 30 µM is 6.8 ± 0.3%. In series [2], the viability at 24 h, 100 µM was determined as 3.3 ± 0.3%. In the series on RAW264.7 cells, the “Cytotoxicity against RAW 264.7 (in words)” value (shortened to “Cytotoxicity”) is “moderate cytotoxicities”.

As to `CC1(C)C(=O)C=CC2(C)C1CC(=O)C1(C)C2C(O)CC2(C)C(c3ccoc3)OC(=O)C3OC321` (stereo not drawn) [Compound 1, 11α-hydroxy-7-deacetoxy-7-oxogedunin], in series [1] (3 μM, 24 h), the “Produced NO (%)” value is 92.1 ± 1.5%. Further, in series [1] (10 μM, 24 h), the “Produced NO (%)” value was 83.4% and 83.4 ± 3.1%. The “Produced NO (%)” value in series [1] (30 μM, 24 h) is 61.8% and 61.8 ± 1.8%. Moreover, the “Produced NO (%)” value in series [1] (100 μM, 24 h) is 16.8% and 16.8 ± 0.0%. Moreover, in series [1] (setting [3]), the IC50 is 37.4 µM. Also, in series [2] (RAW264.7 cells), the IC50 at 24 h is more than 100 µM; the viability at 24 h, 3 µM came out at 102.4 ± 0.8%; the viability at 24 h, 10 µM stood at 101 ± 1.7%; the viability at 24 h, 30 µM came out at 102.8 ± 0.6%. Moreover, in series [2] (RAW264.7 cells), the viability at 24 h, 100 µM was 103 ± 1.8%. Moreover, the “Cytotoxicity” value with RAW264.7 cells is “non-toxicities; also recorded: no cytotoxicity”.

For the molecule `C/C=C(\C)C(=O)OC1C2(C)CC3(O)C(C)(C4CCC5(C)C(=C4C(OC(=O)C(C)CC)C13O)C(OC(C)=O)C(=O)OC5c1ccoc1)C2CC(=O)OC` (centres unmarked) [Compound 2, carapanolide K], in series [1] (3 μM, 24 h), the “Produced NO (%)” value was determined as 78.6 ± 1.9%. Also, in series [1] (10 μM, 24 h), the “Produced NO (%)” value was found to be 58.3 ± 2.8%. Besides, the “Produced NO (%)” value in series [1] (30 μM, 24 h) stood at 25.8 ± 7.0%. Also, the “Produced NO (%)” value in series [1] (100 μM, 24 h) was 7.1 ± 1.2%. In addition, the IC50 in series [1] (setting [3]) was determined as 12 µM. Further, in series [2] (RAW264.7 cells), the IC50 at 24 h was 15.2 µM; the viability at 24 h, 3 µM worked out at 81.4 ± 0.8%; the viability at 24 h, 10 µM was 65.6 ± 0.2%; the viability at 24 h, 30 µM came out at 33.6 ± 6.3%. Also, the viability at 24 h, 100 µM in series [2] (RAW264.7 cells) was found to be 0.4 ± 0.4%.

Turning to `[H]/N=C(/NC)NCCC[C@H](N)C(=O)O` [L-NMMA, reference compound], the “Produced NO (%)” value in series [1] (3 μM, 24 h) is listed as 93.0 ± 3.3%. The “Produced NO (%)” value in series [1] (10 μM, 24 h) was 79.3% and 79.3 ± 0.8%. The “Produced NO (%)” value in series [1] (30 μM, 24 h) is 58.2% and 58.2 ± 2.4%. Further, the “Produced NO (%)” value in series [1] (100 μM, 24 h) was 39.9% and 39.9 ± 1.7%. Besides, in series [1] (setting [3]), the IC50 was found to be 53.7 µM. Moreover, in series [2] (RAW264.7 cells), the IC50 at 24 h is more than 100 µM; the viability at 24 h, 3 µM is 103.5 ± 0.5%; the viability at 24 h, 10 µM is 102 ± 1.5%; the viability at 24 h, 30 µM was determined as 94.1 ± 1.4%. Further, in series [2] (RAW264.7 cells), the viability at 24 h, 100 µM turned out to be 96.5 ± 2.5%.

With `CCC(=O)OC1C2(O)C(OC(C)=O)C3(C)CC24OC2(C)OC15C1CC(=O)OC(c6ccoc6)C1(C)CCC5(O2)C41COC(=O)CC31` (centres unmarked) [Compound 3, carapanolide L], the “Produced NO (%)” value in series [1] (3 μM, 24 h) is 95.6 ± 2.5%. The “Produced NO (%)” value in series [1] (10 μM, 24 h) was 95.4 ± 1.2%. Besides, in series [1] (30 μM, 24 h), the “Produced NO (%)” value is 95.4 ± 2.9%. Moreover, in series [1] (100 μM, 24 h), the “Produced NO (%)” value amounted to 78.4 ± 2.3%. In series [1] (RAW264.7, 24 h), the IC50 was more than 100 µM. Also, in series [2] (RAW264.7 cells), the IC50 at 24 h was more than 100 µM; the viability at 24 h, 3 µM came to 97.6 ± 0.6%; the viability at 24 h, 10 µM worked out at 97.3 ± 1.3%; the viability at 24 h, 30 µM came out at 100.5 ± 0.4%. For the same molecule, the viability at 24 h, 100 µM in series [2] (RAW264.7 cells) amounted to 94.4 ± 1%. Besides, the “Cytotoxicity” value in the series on RAW264.7 cells is “non-toxicities”.
